Data taken from publication PMC6934184, “Selective DNA-PKcs inhibition extends the therapeutic index of localized radiotherapy and chemotherapy” (The Journal of Clinical Investigation, 2019).

Target: T1, CSF1R (FMS) (Homo sapiens, UniProt P07333)
T1 construct: purchased Thermo Fisher Scientific (Life Technologies) SelectScreen
Assay: SelectScreen Z'LYTE
Format: biochemical
Method in brief: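 SelectScreen broad panel; activity (Z'LYTE, Adapta) plus binding formats. ATP: Km app for CSF1R Z'LYTE; 10 for CAMK1 Adapta. Readout = % per kinase.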

T1 sequence (P07333 20-972): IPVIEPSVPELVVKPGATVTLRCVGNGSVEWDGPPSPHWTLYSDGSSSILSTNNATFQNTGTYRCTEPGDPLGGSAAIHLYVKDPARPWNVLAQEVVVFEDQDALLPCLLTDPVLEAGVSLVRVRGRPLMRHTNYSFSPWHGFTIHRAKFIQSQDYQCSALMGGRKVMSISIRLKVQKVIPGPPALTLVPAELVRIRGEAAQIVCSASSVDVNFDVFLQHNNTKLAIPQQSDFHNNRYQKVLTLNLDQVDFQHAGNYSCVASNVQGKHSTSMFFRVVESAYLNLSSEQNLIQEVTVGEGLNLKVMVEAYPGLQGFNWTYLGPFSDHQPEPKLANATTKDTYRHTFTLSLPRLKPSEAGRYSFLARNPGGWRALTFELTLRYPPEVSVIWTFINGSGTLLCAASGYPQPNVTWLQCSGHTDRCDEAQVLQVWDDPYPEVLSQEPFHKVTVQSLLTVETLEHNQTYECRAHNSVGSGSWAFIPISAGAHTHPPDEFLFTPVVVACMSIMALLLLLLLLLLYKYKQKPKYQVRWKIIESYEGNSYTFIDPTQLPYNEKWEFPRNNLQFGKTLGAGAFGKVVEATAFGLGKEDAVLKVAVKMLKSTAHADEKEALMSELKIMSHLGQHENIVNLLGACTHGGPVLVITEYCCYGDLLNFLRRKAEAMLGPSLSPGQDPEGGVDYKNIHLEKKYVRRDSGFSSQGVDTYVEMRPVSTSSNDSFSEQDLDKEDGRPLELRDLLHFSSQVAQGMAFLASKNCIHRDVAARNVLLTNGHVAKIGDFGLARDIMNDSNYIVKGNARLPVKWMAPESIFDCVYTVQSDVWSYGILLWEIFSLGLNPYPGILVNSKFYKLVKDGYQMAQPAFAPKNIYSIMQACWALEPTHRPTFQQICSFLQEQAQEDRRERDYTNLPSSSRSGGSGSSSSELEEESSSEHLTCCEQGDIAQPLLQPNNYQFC

Compound: CN(C(=O)CN1CCOCC1)c1ccc2sc3c(-c4cccc5c(=O)cc(N6CC7CCC(C6)O7)oc45)cccc3c2c1 [NU5455]
- inhibition at 1 µM: 4.3%
